# Test results from ChEMBL document CHEMBL4414604, “Anti-inflammatory Chalcone-Isoflavone Dimers and Chalcone Dimers from Caragana jubata” (J Nat Prod, 2019).
# pIC50: −log10 of the molar value.
# Tests used:
# [1] = system: RAW264.7; test: Antiinflammatory activity against mouse RAW264.7 cells assessed as inhibition of LPS-induced NO production incubated for 24 hrs by Griess reagent-based assay; assay type: functional, cell-based; conditions: RAW264.7, 24 h
# [2] = system: RAW264.7; test: Antiinflammatory activity against mouse RAW264.7 cells assessed as inhibition of LPS-induced IL-6 secretion after 24 hrs by ELISA; assay type: functional, cell-based; conditions: RAW264.7, 24 h
# [3] = system: RAW264.7; test: Antiinflammatory activity against mouse RAW264.7 cells assessed as inhibition of LPS-induced TNF-alpha secretion after 24 hrs by ELISA; assay type: functional, cell-based; conditions: RAW264.7, 24 h
# [4] = system: RAW264.7; test: Cytotoxicity against mouse RAW264.7 cells assessed as reduction in cell viability at 50 uM by MTT assay; assay type: cell-based; conditions: raw264.7, 50 µM
SMILES,pIC50 [1],pIC50 [2],pIC50 [3],Activity [4]
COc1ccc([C@H](/C=C/c2ccc(O)cc2)c2cc(-c3coc4cc(OC)cc(O)c4c3=O)c(O)cc2O)c(OC)c1,4.59,< 4.30,4.94,Non-Toxic
COc1ccc2c(c1)O[C@@]1(/C=C/c3ccc(O)cc3)c3ccc(OC)cc3O[C@H]2[C@H]1Cc1ccc(O)cc1,5.28,4.57,4.83,Non-Toxic
COc1ccc2c(c1)O[C@@H](c1ccc(OC)cc1OC)[C@H](Cc1ccc(O)cc1)[C@H]2/C=C/c1ccc(O)cc1,4.59,4.50,4.57,Non-Toxic
COc1ccc(/C=C/[C@H](c2ccc(O)cc2)c2cc(-c3coc4cc(OC)cc(O)c4c3=O)c(O)cc2O)c(OC)c1,5.39,4.49,4.69,Non-Toxic

# Continued, in another order:
pIC50 [1],pIC50 [2],pIC50 [3],SMILES,Activity [4]
5.22,5.08,5.21,C[C@@H]1C[C@H]2[C@@H]3CCC4=CC(=O)C=C[C@]4(C)[C@@]3(F)[C@@H](O)C[C@]2(C)[C@@]1(O)C(=O)CO [DEXAMETHASONE],
4.73,,,C[C@H]1[C@H](C)CC[C@]2(C=O)CC[C@]3(C)C(=CC[C@@H]4[C@@]5(C)CC[C@H](O)C(C)(C)[C@@H]5CC[C@]43C)[C@H]12 [OLEANOALDEHYDE],Non-Toxic
